Values quoted from earlier work as cited in US10206934B2, “Implants and methods for treating inflammation-mediated conditions of the eye” (Allergan, Inc., priority 2000, dated 2019).

Settings: fold less potent; 25 mg equivalent to 1 mg dexamethasone

With `C[C@]12CCC(=O)C=C1CC[C@@H]1[C@@H]2[C@@H](O)C[C@@]2(C)[C@H]1CC[C@]2(O)C(=O)CO` [hydrocortisone] as the compound, how does the “Potency relative to dexamethasone” value read?
Its value is “approximately twentyfivefold”.
